The source of these data is patent US10363251B2, “(+)-morphinans as antagonists of toll-like receptor 9 and therapeutic uses thereof” (Mallinckrodt LLC, priority 2009, dated 2019).

Assay [1] concerns APAP-induced liver toxicity. Kind of assay: Acetaminophen (APAP)-induced hepatotoxicity model. The assay is classed as in vivo, mouse. As to conditions: APAP 500 mg/Kg ip, 12 hours post-APAP; for Protection from APAP-induced toxicity: test doses and timing per Table 6; for Liver histology scores (necrosis and hemorrhage) / Serum alanine transaminase (ALT) levels: vs APAP alone. Here is the method: For this, APAP-induced liver toxicity was induced in male C57BL/6 mice aged between 8-10 weeks by a single intraperitoneal (ip) injection of APAP in PBS at a dose of 500 mg/Kg (Imaeda et al. (2009) J. Clin. Invest. 119(2):305-314). The ability of (+)-morphinans to reduce liver toxicity was tested in the following groups:
The (+)-morphinan (or PBS) was either administered as a single subcutaneous (sc) or ip injection concurrent with the APAP injection or one hour prior to the APAP injection.
The mice were sacrificed 12 hours post-APAP treatment. Liver samples were stained with H&E and analyzed for signs of necrosis and hemorrhage. Histology scores were assigned using the standard rating scale. The levels of serum alanine transaminase (ALT) were also measured in each animal using a standard assay.

In assay [2] the target is T1, TLR7 (Homo sapiens, UniProt Q9NYK1).
T1 construct: expressed in transfected cells; host or cells: HEK293
T1 sequence (Q9NYK1 27-1049): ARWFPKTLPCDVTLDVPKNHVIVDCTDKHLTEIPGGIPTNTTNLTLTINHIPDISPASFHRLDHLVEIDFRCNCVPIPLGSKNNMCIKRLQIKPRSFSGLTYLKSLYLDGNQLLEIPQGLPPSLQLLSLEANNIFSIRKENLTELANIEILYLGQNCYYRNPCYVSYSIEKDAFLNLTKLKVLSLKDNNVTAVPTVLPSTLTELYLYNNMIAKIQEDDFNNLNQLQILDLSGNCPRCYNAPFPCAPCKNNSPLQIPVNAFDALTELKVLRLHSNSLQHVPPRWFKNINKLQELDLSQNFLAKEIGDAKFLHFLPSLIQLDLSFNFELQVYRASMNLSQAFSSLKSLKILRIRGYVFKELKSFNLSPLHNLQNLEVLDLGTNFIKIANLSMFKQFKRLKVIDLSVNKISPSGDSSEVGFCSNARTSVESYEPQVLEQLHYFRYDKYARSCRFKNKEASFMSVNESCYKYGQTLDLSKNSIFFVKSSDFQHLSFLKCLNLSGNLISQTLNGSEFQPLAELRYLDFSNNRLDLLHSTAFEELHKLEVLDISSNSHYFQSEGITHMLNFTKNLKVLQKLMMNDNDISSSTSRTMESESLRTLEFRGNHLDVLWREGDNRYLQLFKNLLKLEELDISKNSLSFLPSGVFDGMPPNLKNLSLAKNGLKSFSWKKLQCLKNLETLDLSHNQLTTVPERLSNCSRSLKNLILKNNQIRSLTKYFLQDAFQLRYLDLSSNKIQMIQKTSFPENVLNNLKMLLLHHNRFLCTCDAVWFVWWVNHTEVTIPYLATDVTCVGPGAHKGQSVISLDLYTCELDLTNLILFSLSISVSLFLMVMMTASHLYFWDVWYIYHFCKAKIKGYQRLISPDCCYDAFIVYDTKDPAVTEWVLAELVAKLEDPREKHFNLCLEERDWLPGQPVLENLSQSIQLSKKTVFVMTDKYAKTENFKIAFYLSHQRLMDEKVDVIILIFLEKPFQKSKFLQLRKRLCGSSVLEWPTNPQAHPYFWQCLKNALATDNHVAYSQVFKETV
Kind of assay: TLR7 antagonist screening, NF-κB-inducible SEAP reporter in HEK293 cells. The assay is classed as cell-based. The conditions noted are these: for Average % Inhibition at TLR7: 10 μM, stimulated with CL097 at 1 μg/ml. Here is the method:
Stimulation of TLRs 2, 3, 4, 5, 7, 8, and 9 was determined by assessing activation of the transcription factor NF-κB in HEK293 cells that were engineered to express the corresponding receptors. Assessment of TLR stimulation was based on the use of an NF-κB-inducible secreted alkaline phosphatase (SEAP) reporter system in which the SEAP reporter was under the control of a promoter inducible by NF-κB. Thus, the degree of activation of TLRs can be indirectly quantified spectrophotometrically by measuring the amount of the SEAP reporter that is produced.
The appropriate TLR-expressing cells were plated in Growth Medium in a 96-well plate (25,000-50,000 cells/well). The cells were stimulated with the appropriate positive control ligand or no ligand was added (negative control). The positive control ligands were: HKLM was used to stimulate TLR2; poly(I:C) was used to stimulate TLR3; LPS was used to stimulate TLR4; Flagellin was used to stimulate TLR5; CL097 was used to stimulate TLR7; CL075 was used to stimulate TLR8; CpG oligodeoxynucleotide (ODN) 2006 was used to stimulate TLR9. To test whether (+)-morphinans could block that activation of the TLR, the cells were pretreated with an antagonist for 30 minutes prior to addition of the positive control ligand. […] After a 16-20 hr incubation period at 37° C. in a CO2 incubator, 20 μL of the cell culture supernatant was added to 180 μL of QUANTI-Blue™ Media (InvivoGen, San Diego, Calif.), and the resulting solutions were incubated at 37° C. for an additional 1-3 hours according to the manufacturer's instructions. The OD's of the samples were then read at 650 nm on a Beckman Coulter AD 340C Absorbance Detector.

For assay [3], the system named is TLR9. Kind of assay: IL-1β up-regulation in peritoneal macrophages by TLR9 agonist ODN2395. The format is cell-based. The text has this:
TLR9 signalling involves activation of NF-κB and IRF downstream pathways. The (+)-morphinan inhibited both of these pathways following activation of TLR9 (but not activation of TLR4 or other receptors). The type C TLR9 agonist, ODN2395, and the TL4 agonist, LPS, both induce up-regulation of IL-1β in peritoneal macrophages via activation of NF-κB.

Broadly, the inhibition is the percentage by which the read-out fell short of the control. Higher therefore signals strong suppression.

The structures appear in SMILES notation. “Also recorded” adds a separate entry of the source.

In the case of `C=CCN1CC[C@]23c4c5ccc(O)c4O[C@H]2C(=O)CC[C@]3(O)[C@H]1C5` [(+)-Naloxone, (+)-naloxone], in assay [1], the “Protection from APAP-induced toxicity” value was “essentially no protection”; the “Liver histology scores (necrosis and hemorrhage)” value is given as “did not improve the histology scores”; the “Serum alanine transaminase (ALT) levels” value was “reduced the ALT levels”. Moreover, in assay [1] (listed as (+)-naloxone), the “Protection from APAP-induced toxicity” value was “did not affect acetaminophen-induced hepatotoxicity”. In addition, in assay [2], the “Average % Inhibition at TLR7” value is 18%.
Take `COc1ccc2c(c1O)[C@@]13CCN(C)[C@@H](C2)[C@H]1CC(OC)C(=O)C3` (some centres unmarked) [Dihydrosinomenine, dihydrosinomenine]: the “Average % Inhibition at TLR7” value in assay [2] amounted to 11%.
In the case of `CN[C@@H]1CC[C@]2(O)[C@@H]3Cc4ccc(O)c5c4[C@]2(CCN3CC2CC2)[C@@H]1O5` [II-78], in assay [1], the “Protection from APAP-induced toxicity” value is given as “provided protection”; the “Liver histology scores (necrosis and hemorrhage)” value was “reduced to about half”; the “Serum alanine transaminase (ALT) levels” value is listed as “reduced significantly”. The “IL-1β mRNA up-regulation (NF-κB pathway)” value in assay [3] is “response was inhibited; also recorded: reduced both NFκB- and IRF-dependent pathways downstream of TLR9”.
In assay [2] (HEK293, stimulated with CL097 at 1 μg/ml), `COC1=C[C@@H]2[C@@H]3Cc4ccc(OC)c(O)c4[C@]2(CCN3C)CC1=O` [Sinomenine, sinomenine] had an inhibition at 10 µM of 20%.
